The values below come from patent publication US20250368628A1, “METHODS AND COMPOUNDS FOR MODULATING INHERITED GENETIC DISEASES” (Design Therapeutics, Inc., priority 2022, published 2025).

The test system of test [1] is Myotonic Dystrophy 1 affected patient fibroblasts (Coriel GM04602; 1600 CTG repeats). The test is described as follows: DM1 foci reduction assay (EC50 assay; CAG10-Cy3 FISH, foci per nucleus). The class given is cell-based. The settings on record: Homo sapiens, Fibroblast; DM1 patient fibroblasts, 48 h treatment, foci per nucleus; read-out: DM1 EC50, 48 h. The method, boiled down: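 Foci per nucleus counted by 20× imaging of 4 areas per well, after overnight FISH with 5 nM CAG10-Cy3 and DAPI staining of fixed, permeabilized cells. DM1 fibroblasts (GM04602, 1600 CTG) were dosed 48 h at 37 °C, 8 points, 3-fold dilutions, 3 μM top concentration.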

The test system of another test is F35T cells. In words: Foci reduction in FECD (CAG10-Cy3 FISH, foci per nucleus). The class given is cell-based. To be noted: F35T cells, 48 h treatment, foci per nucleus; read-out: FECD EC50, 48 h. The method, boiled down: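 Foci per nucleus were counted by imaging after overnight CAG10-Cy3 FISH at 37 °C (30% formamide, 2×SSC) with DAPI counterstain, on PFA-fixed, ethanol-permeabilized F35T cells. The cells, seeded at 5000 per well in supplemented Opti-MEM, had received 8-point compound dilutions for 48 h at 37 °C.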

For orientation: EC50 means the concentration at which the effect is half-maximal.

Consider `COC(=O)c1cccc(C#CCCCN(C)CCCNC(=O)c2nc(NC(=O)c3cc(NC(=O)CCNC(=O)c4nc(NC(=O)CCCNC(=O)c5cc(NC(=O)c6nc(NC(=O)CCNC(=O)c7cc(NC(=O)c8nccn8C)cn7C)cn6C)cn5C)cn4C)cn3C)cn2C)c1` [Compound B-341], for which the EC50 (in test [1]; in the test with F35T cells) was less than 0.1 µM each time.
